Results taken from US12534465B2, “5H-pyrrolo[3,2-d]pyrimidine-2,4-diamino compounds and antibody conjugates thereof” (SUTRO BIOPHARMA, INC., priority 2019, dated 2026).

Key:
human TLR7 = biological target: T1, human TLR7 (Homo sapiens, UniProt Q9NYK1); test: HEK293 SEAP reporter assay, TLR panel (Example 10); type: cell-based; conditions: 16 hrs
T1 construct: host or cells: HEK293
T1 sequence (Q9NYK1 27-1049): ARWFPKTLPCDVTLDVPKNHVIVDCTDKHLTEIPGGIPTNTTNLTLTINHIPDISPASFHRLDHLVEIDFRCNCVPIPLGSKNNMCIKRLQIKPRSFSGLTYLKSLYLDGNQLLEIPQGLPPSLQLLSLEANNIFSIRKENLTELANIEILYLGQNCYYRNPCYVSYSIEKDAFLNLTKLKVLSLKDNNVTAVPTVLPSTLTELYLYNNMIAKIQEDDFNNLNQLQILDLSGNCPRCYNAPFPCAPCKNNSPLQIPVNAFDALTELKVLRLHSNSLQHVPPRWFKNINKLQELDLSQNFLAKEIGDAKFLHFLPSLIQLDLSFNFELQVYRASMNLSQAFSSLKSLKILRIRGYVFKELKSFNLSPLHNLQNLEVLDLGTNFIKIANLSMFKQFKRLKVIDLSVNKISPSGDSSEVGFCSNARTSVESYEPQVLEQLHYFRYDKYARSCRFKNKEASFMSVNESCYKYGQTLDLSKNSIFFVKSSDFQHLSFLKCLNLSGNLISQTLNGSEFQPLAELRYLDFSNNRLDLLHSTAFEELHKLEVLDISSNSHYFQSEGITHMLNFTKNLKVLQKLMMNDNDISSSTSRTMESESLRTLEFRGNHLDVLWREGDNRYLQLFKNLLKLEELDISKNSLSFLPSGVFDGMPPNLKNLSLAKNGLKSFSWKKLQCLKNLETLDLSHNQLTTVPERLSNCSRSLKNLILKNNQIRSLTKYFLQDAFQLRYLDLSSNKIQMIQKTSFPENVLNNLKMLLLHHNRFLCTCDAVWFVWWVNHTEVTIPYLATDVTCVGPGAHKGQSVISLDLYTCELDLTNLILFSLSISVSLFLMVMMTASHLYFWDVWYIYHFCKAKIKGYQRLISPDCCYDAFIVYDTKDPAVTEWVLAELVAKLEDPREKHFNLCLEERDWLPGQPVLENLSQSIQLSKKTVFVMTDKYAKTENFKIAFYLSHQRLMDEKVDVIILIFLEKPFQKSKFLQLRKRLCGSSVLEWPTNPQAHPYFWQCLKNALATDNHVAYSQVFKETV
Description: In this example, the activity of the compound 10 to stimulate different human and mouse TLR pathways was investigated on HEK293 cells transfected with inducible SEAP (secreted embryonic alkaline phosphatase) reporter genes and also expressing different human TLRs (TLR2, TLR3, TLR4, TLR5, TLR7, TLR8, TLR9) or mouse TLRs (TLR2, TLR3, TLR4, TLR5, TLR7, TLR8, TLR13).
HEK293 reporter cell lines were purchased from Invivogen and cell lines were maintained in manufacture recommended culture medium with required supplemental antibiotics. On the day of assay, the cells were harvested with Accutase and counted by the Vi-CELL Cell Viability Analyzers. Cells were resuspended in HEK blue detection medium and a total of 10000 cells were seeded in each well of a 384-well flat bottom plate. Serial dilutions of compound 10 and compound 1 was added into treatment wells. Assay plates were cultured at 37° C. in a CO2 incubator for 16 hrs. HEK-Blue™ Detection medium changes to a purple/blue color in the presence of secreted SEAP, which can be detected by spectrophotometry at 620-655 nm. Data was fitted with non-linear regression analysis, using a log(inhibitor) vs. response-variable slope, 3-parameter fit with GraphPad Prism.

[1] = Body weight / tolerability in MC38-hFolRα tumor-bearing mice; type: in vivo, mouse
Procedure: Female C57BL/6 mice at 9-10 weeks of age were anesthetized with isoflurane and implanted subcutaneously into the right hind flank with 1×10^6 MC38-hFolRα (murine colon adenocarcinoma cells engineered to express hFolRα). Randomization and start of treatment was initiated when the average tumor size was approximately 150 mm^3 (designated as Day 0 post-treatment). Animals received intratumoral (IT) injections of Compound 2 on Day 0 and Day 4 (q4d×2). Compound 2 was dissolved in DMSO and dosing solutions were formulated in PBS. Body weight and tumor size were monitored 3×/week. The primary study endpoint was reached when the mean tumor size of the vehicle control group was >1,200 mm^3.

human PBMCs [2] = test: Cytokine release (ELISA); type: cell-based; conditions: 24 hr, 10 μg/mL LPS-RS
Procedure: This example evaluates the ability of Compound 10 to induce cytokine release in human PBMCs, cyno PBMCs and mouse splenocytes. Compound 1 and resiquimod:
Human and cyno PBMCs, mouse splenocytes were isolated as described in previous example. The day of the assay, 300 k of PBMC or splenocytes in 50 μL of culture medium were seeded in 96-well cell culture plates. 50 μl of the test articles (formulated at 2× of starting concentration) were then added into the well. The cell mixtures were co-cultured in the presence of test articles and 10 μg/mL LPS-RS for 24 hr (human PBMCs) or 48 hr (cyno PBMCs and mouse splenocytes). Cytokines released were measured by ELISA using cell culture medium.

human PBMCs [3] = test: Immune cell activation (CD86 expression, flow cytometry); type: cell-based; conditions: 48 hr, 10 μg/ml LPS-RS
Description: This example evaluates the ability of Compound 10 to stimulate the activation of different immune cells populations (monocyte, B cell, and DCs), in human PBMCs (Peripheral blood mononuclear cells), cyno PBMCs and mouse splenocytes.
Peripheral blood mononuclear cells (PBMCs) were isolated from fresh collected blood from two healthy human donors and two cynomolgus monkey donors using Leukosep tube and Nycoprep 1.077 buffer according to the manufacture's recommendation. Mouse splenocytes were isolated from C57/BL6 mouse spleens by macerating and straining over a 70 μm cell strainer. Isolated PBMCs or splenocytes were then frozen down using frozen medium. On the day of the assay, PBMCs or splenocytes were thawed and cultured in PBMC culture medium (RPMI supplemented with 10% heat-inactivated fetal bovine serum from Hyclone, 1% Penicillin/Streptomycin and 2 mmol/L-glutamax). 300 k of PBMC or splenocytes in 50 μl of culture medium were seeded in 96-well cell culture plates. 50 μl of the test articles (formulated at 2× of starting concentration) were then added into the well. The cell mixtures were co-cultured in the presence of test articles and 10 μg/ml LPS-RS for 48 hr. The cells were collected by Accutase and then stained with antibodies to different cell population markers and activation markers. Cells were washed, fixed with 2% PFA overnight, and read on the Attune N×T cytometer (Thermo Fisher). Monocyte activation was indicated as increase of CD86 expression on CD14+ cells. B cell activation was indicated as increase of CD86 expression on CD14−/Lin+/HLA-DR+ cells. Dendritic cells (DC) activation was indicated as increase of CD86 expression on CD14−/Lin−/HLA-DR+/CD123+ cells.

Compound	EC50 (human TLR7)	tolerability ([1]; 0.1-2 mg/kg intratumoral, Day 0 and 4)	dose-related minimal body weight loss ([1]; FIG. 7A legend, mice bearing MC38-hFolRα tumors)	body weight loss ([1]; doses >0.5 mg/kg intratumoral, Day 0 and 4, recovery by approximately Day 7, FIG. 7A)	IL-6 release (human PBMCs [2]; FIG. 4A)	MCP-1 release (human PBMCs [2]; FIG. 4B)	IL1Ra release (human PBMCs [2]; FIG. 4C)	activation of monocytes (human PBMCs [3]; FIG. 1A)	activation of B cells (human PBMCs [3]; FIG. 1B)	activation of cDCs (human PBMCs [3]; FIG. 1C)	activation of pDCs (human PBMCs [3]; FIG. 1D)
CCCCCNc1nc(N)nc2ccn(Cc3ccc(CN4CCNCC4)cc3OC)c12 [Compound 1, 5-(2-methoxy-4-(piperazin-1-ylmethyl)benzyl)-N4-pentyl-5H-pyrrolo[3,2-d]pyrimidine-2,4-diamine, reference compound]	2.17 nM										
CCCCCNc1nc(N)nc2ccn(Cc3ccc(CN4CC(NC)C4)cc3OC)c12 [Compound 2, 5-(2-methoxy-4-((3-(methylamino)azetidin-1-yl)methyl)benzyl)-N4-pentyl-5H-pyrrolo[3,2-d]pyrimidine-2,4-diamine]		well tolerated	< 10 % of predose	approximately 5%							
CCCCCNc1nc(N)nc2ccn(Cc3ccc(CN4CC5(CNCCO5)C4)cc3OC)c12 [Compound 10, 5-[[2-methoxy-4-(5-oxa-2,8-diazaspiro[3.5]nonan-2-ylmethyl)phenyl]methyl]-N4-pentyl-pyrrolo[3,2-d]pyrimidine-2,4-diamine]	11 nM				strong	strong	strong	very potent	very potent	very potent	very potent
